In patent publication US20240180888A1, “C5AR1 INHIBITORS FOR TREATING […] REACTIONS TO TAXANES” (Dompe' Farmaceutici SPA, priority 2021, published 2024):
“Also recorded” adds a separate entry of the source.

Key:
[1] = tested on: RAW 264.7 mouse macrophages; assay: Proteome profiler cytokine release assay in RAW 264.7 macrophages; assay type: cell-based; conditions: stimulus C5a 10 nM or Paclitaxel 10 nM, 24 h; DF3966A 10 μM, anti C5aR Ab 50 nM, Avacopan 10 μM
Method: RAW 264.7 (ATTC TIB-71) mouse macrophages were cultured following manufacturer's instructions using DMEM medium (Euroclone, MI, Italy) supplemented with 10% FBS (non-heat inactivated) (ATCC, USA) at 37° C., in a humidified 95% air-5% CO2 atmosphere and then were seeded at 1*10^4 cells/cm^2.
(§1) After 24 hours, cells were treated with C5a (diluted in medium) (10 nM, R&D, USA), Paclitaxel (diluted in medium) (10 nM, Sigma, USA) in the absence and in the presence of the C5a inhibitor DF3966A (10 μM), and anti C5aR Ab (BioLegend, CA, USA; 50 nM) or Avacopan (10 μM) for 24 hours, then the media was replaced with culture media (5 ml) for 24 h and then collected.
(§2) Conditioned media were centrifugated to remove particulates and assayed immediately. […] The reagents were prepared following manufacturer's protocols (R&D, USA). Briefly, the membranes were incubated with Array Buffer 6 for 1 hour on a rocking platform shaker. The samples were prepared by adding up to 1 ml of Array Buffer 4 in two separated tubes and then 15 microl of reconstituted mouse cytokine detection antibody cocktail (>40 mouse cytokines) to each prepared sample and incubated 1 hour. Then, the Array Buffer 6 was aspirated and replaced with the sample/antibody mixtures and incubated at 4° C. overnight. The following day, membranes were washed 3 times and Streptavidin-HRP (1:2000) was incubated for 30 minutes at room temperature on a rocking platform shaker. The membranes were washed again, and 1 ml of prepared Chemi Reagent mix was placed onto each membrane. Multiple exposure times were acquired using UVITEC digital analyzer (Alliance, Cambridge, UK).
(§3) The positive signals seen in the developed membranes can be identified by placing the transparency overlay template on the array image and aligning it with pairs of reference spots in the three corners of each array (see FIG. 10). […] Pixel densities (average signals of pair of duplicates which represent each cytokine) were analyzed by ImageJ and the average background was subtracted from each spot.
(§4) In details, the profiling of cytokines released (>40 cytokines) from RAW 264.7 and human macrophages challenged with paclitaxel (Sigma-Aldrich; 10 nM) or C5a (R&D Systems, Inc. MN, USA; 10 nM) for 24 h using a proteome profiler assay. […] The experimental assay is explained in example 4.
(§5) For the human macrophages, human XL Cytokine Array kit #Ary022B was used, while for murine macrophages mouse cytokine Array Panel A #Ary006 was used (R&D systems, USA).

[2] = tested on: human (THP-1) macrophages; assay: Proteome profiler cytokine release assay in human macrophages; assay type: cell-based; conditions: human macrophages; stimulus C5a 10 nM or paclitaxel 10 nM, 24 h
Method: as §1, §2, §3, §4, §5

[3] = tested on: paclitaxel-induced HSRs in mice; assay: Prevention of paclitaxel-induced HSRs in vivo by C5aR1 inhibition (Example 8); conditions: 30 mg/kg, os; for increment of serum concentration of complement 5b-9 (SC5b-9) / increment of serum concentration of histamine: pre-treatment, paclitaxel-treated mice, ELISA; for paclitaxel-induced increase of plasma extravasation / paclitaxel-induced increase of vascular leakage: DF3966A 3 h, Avacopan 1 h before paclitaxel 20 mg/kg iv in Cremophor EL
Method: ) was intravenousely administrated at 20 mg/kg (0.1 mL/Kg) dissolved in Cremophor EL (polyoxyl 35 castor oil, Sigma-Aldrich, cod. 238470). […] Cremophor alone (Cremophor) was used as a control. […] Intracardiac injection was done to obtain blood in tubes and leaving it undisturbed at room temperature. Serum was separated from blood cells 30 minutes later by centrifugation (2000×g for 10 min, at 4° C.). Aliquots were prepared and stored at -20° C. ELISA kit was used to evaluate the following marker: histamine and SC5b-9 (Mybiosource, San Diego, USA Cat.No: MBS9361379, MBS725193).

Compound | effect on C5a- and paclitaxel-induced cytokine release [1] | effect on C5a- and paclitaxel-induced cytokine release [2] | increment of serum concentration of complement 5b-9 (SC5b-9) [3] | increment of serum concentration of histamine [3] | paclitaxel-induced increase of plasma extravasation [3] | paclitaxel-induced increase of vascular leakage [3]
Cc1ccc(NC(=O)[C@H]2CCCN(C(=O)c3c(C)cccc3F)[C@H]2c2ccc(NC3CCCC3)cc2)cc1C(F)(F)F [Avacopan, (2R,3S)-2-[4-(Cyclopentylamino)phenyl]-1-(2-fluoro-6-methylbenzoyl)-N-[4-methyl-3-(trifluoromethyl)phenyl]piperidine-3-carboxamide] | inhibited; also recorded: counteracted | effectively counteracted | significatively reduced | significatively reduced | abolishing | abolishing
C[C@H](c1ccc(Nc2nc(C(F)(F)F)cs2)cc1)c1nn[nH]n1 [DF3966A, 5-[(1R)-1-(4-{[4-(trifluoromethyl)-1,3-thiazol-2-yl]amino}phenyl)ethyl]tetrazol-2-ide] | inhibited; also recorded: counteracted | effectively counteracted | significatively reduced | significatively reduced | abolishing | abolishing
